Measurements from patent US11530222B2, “Substituted pyrrolopyrimidine and pyrazolopyrimidine as Bruton's tyrosine kinase (BTK) degraders” (ACCUTAR BIOTECHNOLOGY INC., priority 2021, dated 2022).

How the values were obtained:
Assay type in all cases: cell-based
BTK = molecular target: T1, BTK (Homo sapiens, UniProt Q06187); test: BTK degradative activity in a RAMOS cell line (Western blot); conditions: 6 hours after administration, read-out: RAMOS BTK Degradation DC50
T1 construct: BTK Degradative Activity of Exemplary Compounds of the Present Disclosure in a RAMOS Cell Line; host or cells: RAMOS
T1 sequence (Q06187 whole entry): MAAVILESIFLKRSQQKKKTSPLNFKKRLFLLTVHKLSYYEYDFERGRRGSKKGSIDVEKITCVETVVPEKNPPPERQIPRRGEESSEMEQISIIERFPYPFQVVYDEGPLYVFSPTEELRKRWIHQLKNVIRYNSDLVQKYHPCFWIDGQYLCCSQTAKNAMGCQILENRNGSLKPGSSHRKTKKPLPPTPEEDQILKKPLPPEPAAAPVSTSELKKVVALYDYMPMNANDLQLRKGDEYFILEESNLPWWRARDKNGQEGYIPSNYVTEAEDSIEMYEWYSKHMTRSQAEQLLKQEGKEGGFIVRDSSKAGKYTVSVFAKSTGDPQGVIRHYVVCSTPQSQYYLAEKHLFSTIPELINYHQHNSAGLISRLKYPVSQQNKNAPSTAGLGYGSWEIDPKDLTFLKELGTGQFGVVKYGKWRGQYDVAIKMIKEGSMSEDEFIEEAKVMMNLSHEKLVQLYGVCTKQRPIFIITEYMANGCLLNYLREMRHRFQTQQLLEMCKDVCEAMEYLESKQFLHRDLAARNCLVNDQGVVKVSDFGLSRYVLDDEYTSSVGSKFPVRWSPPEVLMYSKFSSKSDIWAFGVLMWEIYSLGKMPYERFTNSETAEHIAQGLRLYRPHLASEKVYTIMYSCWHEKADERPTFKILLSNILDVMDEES
How it was run: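 Ramos cells in RPMI with 10% FBS were treated with compound in DMSO at various concentrations for 6 h at 37 °C. BTK was measured by Western blot against GAPDH with infrared fluorescent detection and band quantification. DC50 is the concentration at which 50% of BTK is degraded.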

REC-1 cells = test: Growth inhibitory activity in BTK-dependent REC-1 cell line (CellTiter-Glo); conditions: Homo sapiens, Rec1, 144 h, 6 days after administration, read-out: REC1 Cellular Grwoth Inhibition IC50
Protocol: (§1) REC-1 (ATCC) and REC-1 BTK^C481S cells were plated in 96-well plates at 8,000 cells/well in 90 ul of RPMI growth medium containing 10% heat-inactivated FBS and 1× Penicillin Streptomycin, and then incubated at 37° C. overnight. The following day, the test compound was administered to the cells by using 10× compound stock solution prepared in growth medium at various concentrations. After administration of the compound, cells were then incubated at 37° C. for 6 days. Before CellTiter-Glo assay, the plates were equilibrated at room temperature for approximately 10 minutes. 100 ul of CellTiter-Glo® Reagent (Promega) was added to each well. The plates were then incubated at room temperature for 10 minutes and luminescence was recorded by EnSpire plate reader (PerkinElmer).
(§2) The GI50 values (i.e., the concentration of test compound at which 50% of cell growth are inhibited) were calculated. A designation of “A” corresponds to a […] value less than 20 nM. A designation of “B” corresponds to a […] value greater than or equal to 20 nM and less than 200 nM. A designation of “C” corresponds to a […] value greater than or equal to 200 nM.

REC-1 BTK^C481S cells = test: Growth inhibitory activity in REC-1 BTK^C481S cell line (CellTiter-Glo); conditions: Homo sapiens, Rec1, 144 h, 6 days after administration, read-out: REC1 BTK^C481S Cellular Grwoth Inhibition IC50
Protocol: The BTK gene in REC-1 cell line (ATCC) was edited by the CRISPR-Cas9 technology to create a C to S point mutation at residue 481 of BTK protein. For gene editing, first, gRNA complex was prepared with Alt-R CRISPR-Cas9 tracrRNA and crRNA BTK^C481S (5′-[…]-3′) (IDT-Integrated DNA Technologies), and then BTK^C481S ribonucleoprotein (RNP) complex was prepared with gRNA complex and Alt-R S.p. Cas9 Nuclease V3 (IDT-Integrated DNA Technologies). Next, 1×10^5 REC-1 cells were electroporated with BTK^C481S RNP complex, Alt-R Cas9 Electroporation Enhancer and BTKC481S Ultramer DNA Oligo (5′-[…] […]-3′) (IDT-Integrated DNA Technologies) using Neon Transfection System (Thermo Fisher) under the condition of 1400 V, 10 ms, 3 pulses. Cells were then plated in a 96-well plate for 10 days and selected with 10 nM Ibrutinib for 5 passages. C481S mutation of BTK was further validated by Sanger Sequencing using gDNA extracted from these cells.
as §1, §2

Structure (SMILES) | DC50 (BTK) | IC50 (REC-1 cells) | IC50 (REC-1 BTK^C481S cells)
COc1ccc(F)cc1C(=O)NCc1ccc(-c2nn(-c3ccc(N4CCC(CN5CCN(c6ccc7c(c6)CN([C@H]6CCC(=O)NC6=O)C7=O)CC5)CC4)nc3)c3ncnc(N)c23)cc1 [Compound 59, (S)—N-(4-(4-amino-1-(6-(4-((4-(2-(2,6-dioxopiperidin-3-yl)-1-oxoisoindolin-5-yl)piperazin-1-yl)methyl)piperidin-1-yl)pyridin-3-yl)-1H-pyrazolo[3,4-d]pyrimidin-3-yl)benzyl)-5-fluoro-2-methoxybenzamide] |  | < 20 nM | < 20 nM
COc1ccc(F)cc1C(=O)NCc1ccc(-c2nn(-c3ccc(N4CCC(CN5CCN(c6ccc7c(c6)CN([C@H]6CCC(=O)NC6=O)C7=O)CC5)C4)nc3)c3ncnc(N)c23)cc1 (stereo partly drawn) [Compound 66, N-(4-(4-amino-1-(6-(3-((4-(2-((S)-2,6-dioxopiperidin-3-yl)-1-oxoisoindolin-5-yl)piperazin-1-yl)methyl)pyrrolidin-1-yl)pyridin-3-yl)-1H-pyrazolo[3,4-d]pyrimidin-3-yl)benzyl)-5-fluoro-2-methoxybenzamide] | < 10 nM | < 20 nM | < 20 nM
COc1ccc(F)cc1C(=O)NCc1ccc(-c2nn(-c3ccc(N4CC[C@H](CN5CCN(c6ccc7c(c6)CN([C@H]6CCC(=O)NC6=O)C7=O)CC5)C4)nc3)c3ncnc(N)c23)cc1 [Compound 93, N-(4-(4-amino-1-(6-((R)-3-((4-(2-((S)-2,6-dioxopiperidin-3-yl)-1-oxoisoindolin-5-yl)piperazin-1-yl)methyl)pyrrolidin-1-yl)pyridin-3-yl)-1H-pyrazolo[3,4-d]pyrimidin-3-yl)benzyl)-5-fluoro-2-methoxybenzamide] | < 10 nM | < 20 nM | < 20 nM
COc1ccc(F)cc1C(=O)NCc1ccc(-c2nn(-c3ccc(N4CC[C@@H](CN5CCN(c6ccc7c(c6)CN([C@H]6CCC(=O)NC6=O)C7=O)CC5)C4)nc3)c3ncnc(N)c23)cc1 [Compound 94, N-(4-(4-amino-1-(6-((S)-3-((4-(2-((S)-2,6-dioxopiperidin-3-yl)-1-oxoisoindolin-5-yl)piperazin-1-yl)methyl)pyrrolidin-1-yl)pyridin-3-yl)-1H-pyrazolo[3,4-d]pyrimidin-3-yl)benzyl)-5-fluoro-2-methoxybenzamide] | < 10 nM | < 20 nM | < 20 nM
COc1ccc(F)cc1C(=O)NCc1ccc(-c2nn(-c3ccc(N4CC(CN5CCN(c6ccc7c(c6)CN([C@H]6CCC(=O)NC6=O)C7=O)CC5)C4)nc3)c3ncnc(N)c23)cc1 [Compound 97, (S)—N-(4-(4-amino-1-(6-(3-((4-(2-(2,6-dioxopiperidin-3-yl)-1-oxoisoindolin-5-yl)piperazin-1-yl)methyl)azetidin-1-yl)pyridin-3-yl)-1H-pyrazolo[3,4-d]pyrimidin-3-yl)benzyl)-5-fluoro-2-methoxybenzamide] | < 10 nM | < 20 nM | < 20 nM

Further lines, with some results ahead:

DC50 (BTK) | Structure (SMILES) | IC50 (REC-1 cells) | IC50 (REC-1 BTK^C481S cells)
< 10 nM | COc1ccc(F)cc1C(=O)NCc1ccc(-c2nn(-c3ccc(N4CCC(CN5CCN(c6ccc7c(c6)CN([C@H]6CCC(=O)NC6=O)C7=O)CC5)CC4)c(F)c3)c3ncnc(N)c23)cc1 [Compound 49, (S)—N-(4-(4-amino-1-(4-(4-((4-(2-(2,6-dioxopiperidin-3-yl)-1-oxoisoindolin-5-yl)piperazin-1-yl)methyl)piperidin-1-yl)-3-fluorophenyl)-1H-pyrazolo[3,4-d]pyrimidin-3-yl)benzyl)-5-fluoro-2-methoxybenzamide] | < 20 nM | < 20 nM
< 10 nM | COc1ccc(F)cc1C(=O)NCc1ccc(-c2nn(-c3ccc(N4CCC(CN5CCN(c6ccc7c(c6)CN([C@H]6CCC(=O)NC6=O)C7=O)CC5)C4)c(F)c3)c3ncnc(N)c23)cc1 (stereo partly drawn) [Compound 65, N-(4-(4-amino-1-(4-(3-((4-(2-((S)-2,6-dioxopiperidin-3-yl)-1-oxoisoindolin-5-yl)piperazin-1-yl)methyl)pyrrolidin-1-yl)-3-fluorophenyl)-1H-pyrazolo[3,4-d]pyrimidin-3-yl)benzyl)-5-fluoro-2-methoxybenzamide] | < 20 nM | < 20 nM
< 10 nM | COc1ccc(F)cc1C(=O)NCc1ccc(-c2nn(-c3ccc(N4CC(CN5CCN(c6ccc7c(c6)CN([C@H]6CCC(=O)NC6=O)C7=O)CC5)C4)c(F)c3)c3ncnc(N)c23)cc1 [Compound 85, (S)—N-(4-(4-amino-1-(4-(3-((4-(2-(2,6-dioxopiperidin-3-yl)-1-oxoisoindolin-5-yl)piperazin-1-yl)methyl)azetidin-1-yl)-3-fluorophenyl)-1H-pyrazolo[3,4-d]pyrimidin-3-yl)benzyl)-5-fluoro-2-methoxybenzamide] | < 20 nM | < 20 nM
< 10 nM | COc1ccc(F)cc1C(=O)NCc1ccc(-c2nn(-c3ccc(N4CC[C@H](CN5CCN(c6ccc7c(c6)CN([C@H]6CCC(=O)NC6=O)C7=O)CC5)C4)c(F)c3)c3ncnc(N)c23)cc1 [Compound 95, N-(4-(4-amino-1-(4-((R)-3-((4-(2-((S)-2,6-dioxopiperidin-3-yl)-1-oxoisoindolin-5-yl)piperazin-1-yl)methyl)pyrrolidin-1-yl)-3-fluorophenyl)-1H-pyrazolo[3,4-d]pyrimidin-3-yl)benzyl)-5-fluoro-2-methoxybenzamide] | < 20 nM | < 20 nM
< 10 nM | COc1ccc(F)cc1C(=O)NCc1ccc(-c2nn(-c3ccc(N4CC[C@@H](CN5CCN(c6ccc7c(c6)CN([C@H]6CCC(=O)NC6=O)C7=O)CC5)C4)c(F)c3)c3ncnc(N)c23)cc1 [Compound 96, N-(4-(4-amino-1-(4-((S)-3-((4-(2-((S)-2,6-dioxopiperidin-3-yl)-1-oxoisoindolin-5-yl)piperazin-1-yl)methyl)pyrrolidin-1-yl)-3-fluorophenyl)-1H-pyrazolo[3,4-d]pyrimidin-3-yl)benzyl)-5-fluoro-2-methoxybenzamide] | < 20 nM | < 20 nM
